From patent US9382224B2, “7-acyloxychromen-4-one derivatives and the use thereof as self-tanning substances” (MERCK PATENT GMBH, priority 2011, dated 2016) come the findings set out here.

Assay [1] concerns melanocytes and keratinocytes of tissue samples taken from the stomach tissue of a person. Briefly: Ex vivo study on the promotion of melanogenesis: histological analysis, melanin visualisation. In kind it is cell-based, human. The following applies: for activity of the melanocytes / melanin content in basal keratinocytes / melanin content in suprabasal keratinocytes / melanin in basal keratinocytes: treatment for 10 days. The protocol: (§1) The tissue samples having a diameter of 10 mm are taken from the stomach tissue of a person and stored in BEM medium at 37° C. in a moist atmosphere having a CO2 content of 5%. The tissue samples are employed in accordance with the following test plan:
(§2) 30 μl of test solution are placed on a filter paper and immediately laid on the tissue sample.
(§3) The irradiations are carried out daily before treatment of the tissue samples with test solutions. An RMX 3W Vilbert Lourmat instrument is used. The UV dose is 1.04 J/cm2 comprising 6/8% of UVB.
On the first day (D0), 3 untreated tissue samples are halved, and in each case one half is fixed in buffered formalin solution. The respective other halves are frozen at −80° C.
After fixing for 24 hours in buffered formalin solution, the samples are dehydrated in a Leica TP1010 automatic dryer and impregnated with paraffin. After embedding with the aid of a Leica EG1160 station, 5 μm thin cross sections are produced from the samples using a Leica RM 2125 Minot-type microtome.
The cross sections are mounted on Superfrost Plus specimen slides made from silanised glass. The light-microscopy analysis is carried out by means of a Leica Orthoplan microscope with 25-times magnification in order to assess the general morphology or 40-times magnification in order to visualise the melanin.
The melanin visualisation is carried out after impregnation of the paraffinised cross-sections with silver in accordance with Masson in the Fontana variant.

In assay [2] the test system is tissue samples taken from the stomach tissue of a person. The experiment in a line: Ex vivo study on the promotion of melanogenesis: chromatometry of tissue samples. It is filed as cell-based, human. Conditions: for % L: D10 versus D0. The protocol: as §1, §2, §3
The colour coordinates of the tissue samples are determined by means of a Minolta CM 2600d chromatometer.

Setting [3] is: with UV irradiation, after 10 days.
[4] abbreviates: without UV irradiation, after 10 days.

As for `COc1cc(O)c2c(=O)cc(C)oc2c1` [5-hydroxy-7-methoxy-2-methylchromen-4-one], the “activity of the melanocytes” value in assay [1] (with UV irradiation) and in assay [1] (without UV irradiation) was “very low activity” throughout. Moreover, in assay [1] (with UV irradiation), the “melanin content in basal keratinocytes” value is “moderate”. The “melanin content in suprabasal keratinocytes” value in assay [1] (with UV irradiation) and in assay [1] (without UV irradiation) was “low” in each case. Also, in assay [1] (without UV irradiation), the “melanin in basal keratinocytes” value is recorded as “moderate”. Moreover, the “activity indicated by chromatometric analysis” value (from here on “activity indicated”) in assay [2] (with UV irradiation) and in assay [2] (without UV irradiation) was “skin-lightening activity” each time. The L is 63.63 in assay [2] (with UV irradiation, D0); 64.60 in assay [2] (with UV irradiation, D10); 61.50 in assay [2] (without UV irradiation, D0); 64.64 in assay [2] (without UV irradiation, D10). Moreover, the figures for the “% L” value in assay [2] (with UV irradiation) and in assay [2] (without UV irradiation) were 1.5% and 5.1%, respectively. In addition, in assay [2] (setting [3]), the “change in the L parameter (in words)” value was “increase in the L parameter”.

Turning to `CCCCCCCCCCCCCCCC(=O)Oc1cc(O)c2c(=O)cc(C)oc2c1` [compound Ia, 5-hydroxy-2-methyl-4-oxo-4H-chromen-7-yl hexadecanoate], the “activity of the melanocytes” value is “high degree of activity” in assay [1] (with UV irradiation) and “very high activity” in assay [1] (without UV irradiation). For the same compound, the “melanin content in basal keratinocytes” value in assay [1] (with UV irradiation) is reported as “high”. Besides, the “melanin content in suprabasal keratinocytes” value in assay [1] (with UV irradiation) and in assay [1] (without UV irradiation) was “moderate” throughout. Further, the “increase of the area of the basal layer occupied by melanin” value in assay [1] (without UV irradiation, compared with the untreated control) was 43%. Also, the “melanin in basal keratinocytes” value in assay [1] (without UV irradiation) is “readily detectable”. Moreover, the “activity indicated” value in assay [2] (with UV irradiation) is listed as “clear pro-pigmenting activity”; in assay [2] (without UV irradiation), “pro-pigmenting activity”. Also, the L turned out to be 64.07 in assay [2] (with UV irradiation, D0); 61.52 in assay [2] (with UV irradiation, D10); 64.53 in assay [2] (without UV irradiation, D0); 61.24 in assay [2] (without UV irradiation, D10). Further, the results for the “% L” value in assay [2] (with UV irradiation) and in assay [2] (without UV irradiation) were −4% and −5.1%, respectively. The “light/dark parameter L drops by” value in assay [2] (setting [3]) was determined as 4.0%. For the same compound, the “decrease in the L parameter” value in assay [2] (setting [4]) is listed as 5.1%.

For the compound `CC(=O)c1cc(O)c2c(=O)cc(C)oc2c1` [5-hydroxy-7-acetyl-2-methylchromen-4-one], the “activity of the melanocytes” value in assay [1] (with UV irradiation) is on record as “low activity”; in assay [1] (without UV irradiation), “very low activity”. For the same compound, the “melanin content in basal keratinocytes” value in assay [1] (with UV irradiation) is “moderate”. Also, the “melanin content in suprabasal keratinocytes” value in assay [1] (with UV irradiation) and in assay [1] (without UV irradiation) was “low” throughout. Moreover, the “melanin in basal keratinocytes” value in assay [1] (without UV irradiation) is “moderate”. Moreover, in assay [2], the “tanning activity in the ex vivo experiment” value is “no tanning activity”. The “activity indicated” value in assay [2] (with UV irradiation) and in assay [2] (without UV irradiation) was “skin-lightening activity” in each case. For the same compound, the L in assay [2] (with UV irradiation, D0) stood at 63.66; in assay [2] (with UV irradiation, D10), 64.87; in assay [2] (without UV irradiation, D0), 62.19; in assay [2] (without UV irradiation, D10), 63.98. The “% L” value worked out at 1.9% in assay [2] (with UV irradiation) and 2.9% in assay [2] (without UV irradiation). In addition, the “change in the L parameter (in words)” value in assay [2] (setting [3]) is reported as “increase in the L parameter”. Also, in assay [2] (setting [4]), the “increase in the L parameter” value was determined as 2.9%.
